Reference: patent publication US20250152585A1, “PHARMACEUTICAL COMPOUND” (Duke Street Bio Limited, priority 2022, published 2025)

Columns and labels:
[1] = target: T1, full length N-terminally FLAG-tagged PARP1 (Homo sapiens, UniProt P09874); experiment: PARP1 biochemical DELFIA assay (auto-PARylation); set-up: recombinant full length human N-terminally FLAG-tagged PARP1; conditions: binned IC50, PARP1 biochemical DELFIA assay
[2] = target: T1, full length N-terminally FLAG-tagged PARP1; experiment: PARP1 probe displacement HTRF assay; conditions: for Selectivity: PARP1 over PARP2, ratio Kd (PARP2)/Kd (PARP1), probe displacement HTRF; for Kd: read-out: PARP1 HTRF, binned Kd, PARP1 probe displacement HTRF
[3] = target: T2, N-terminally FLAG-tagged PARP2 (amino acids 1-583) (Homo sapiens, UniProt Q9UGN5); experiment: PARP2 probe displacement HTRF assay; format: binding; conditions: binned Kd, PARP2 probe displacement HTRF
T2 construct: N-terminally FLAG-tagged PARP2 (amino acids 1-583)
T2 sequence (Q9UGN5 whole entry, the tested form may be a part): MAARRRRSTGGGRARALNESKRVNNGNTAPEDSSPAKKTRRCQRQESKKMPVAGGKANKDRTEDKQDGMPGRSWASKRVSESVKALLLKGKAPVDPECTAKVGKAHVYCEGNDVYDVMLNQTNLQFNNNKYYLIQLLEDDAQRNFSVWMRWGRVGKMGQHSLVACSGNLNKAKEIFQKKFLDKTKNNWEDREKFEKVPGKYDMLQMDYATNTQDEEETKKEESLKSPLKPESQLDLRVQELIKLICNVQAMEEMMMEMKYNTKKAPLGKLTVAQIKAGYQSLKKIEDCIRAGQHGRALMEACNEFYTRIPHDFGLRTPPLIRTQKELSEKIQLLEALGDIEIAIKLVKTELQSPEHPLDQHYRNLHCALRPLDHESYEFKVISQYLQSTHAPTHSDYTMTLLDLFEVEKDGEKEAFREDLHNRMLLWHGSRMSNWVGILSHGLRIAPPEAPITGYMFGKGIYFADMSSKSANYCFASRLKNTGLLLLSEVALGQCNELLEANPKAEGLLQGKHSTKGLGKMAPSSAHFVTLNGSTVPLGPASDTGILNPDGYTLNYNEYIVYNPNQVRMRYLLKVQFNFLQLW
Experimental: Data analysis was performed identical as for PARP1.

T1 sequence (P09874 whole entry): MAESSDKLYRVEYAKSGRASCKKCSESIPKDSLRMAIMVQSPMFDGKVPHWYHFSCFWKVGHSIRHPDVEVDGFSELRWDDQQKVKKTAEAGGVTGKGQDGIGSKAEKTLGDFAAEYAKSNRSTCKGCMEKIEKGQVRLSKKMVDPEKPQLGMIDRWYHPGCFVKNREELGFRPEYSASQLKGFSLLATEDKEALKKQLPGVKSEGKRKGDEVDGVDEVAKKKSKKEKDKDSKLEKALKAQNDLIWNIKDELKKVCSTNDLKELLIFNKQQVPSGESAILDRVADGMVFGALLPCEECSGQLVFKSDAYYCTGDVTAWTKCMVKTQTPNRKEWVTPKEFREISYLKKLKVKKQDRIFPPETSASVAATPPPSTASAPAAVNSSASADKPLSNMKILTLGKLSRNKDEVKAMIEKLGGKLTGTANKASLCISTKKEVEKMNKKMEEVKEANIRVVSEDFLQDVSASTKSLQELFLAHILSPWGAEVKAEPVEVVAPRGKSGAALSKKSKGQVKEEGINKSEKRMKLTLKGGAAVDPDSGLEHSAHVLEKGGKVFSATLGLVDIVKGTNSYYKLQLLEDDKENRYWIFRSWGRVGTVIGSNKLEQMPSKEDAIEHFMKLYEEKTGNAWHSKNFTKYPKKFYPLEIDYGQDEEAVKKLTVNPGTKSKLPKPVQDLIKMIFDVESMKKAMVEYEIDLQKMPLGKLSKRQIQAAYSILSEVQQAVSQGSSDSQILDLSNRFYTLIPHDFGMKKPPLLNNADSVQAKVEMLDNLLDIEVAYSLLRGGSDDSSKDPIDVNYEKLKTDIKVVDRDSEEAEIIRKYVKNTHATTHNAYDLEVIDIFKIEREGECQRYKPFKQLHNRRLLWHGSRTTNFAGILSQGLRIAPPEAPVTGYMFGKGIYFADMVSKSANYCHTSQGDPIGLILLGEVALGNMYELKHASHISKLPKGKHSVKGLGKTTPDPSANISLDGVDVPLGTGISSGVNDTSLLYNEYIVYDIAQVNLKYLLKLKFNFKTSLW

Row | SMILES | IC50 [1] [µM] | Selectivity [2] | Kd [2] [µM] | Kd [3] [µM]
1 | CNC(=O)c1ccc(N2CCC(N3CCC(C)(c4nc5ccccc5c(=O)[nH]4)C3)CC2)cn1 (single isomer, unassigned) [Compound 67a] | 0.1 to 1 | + (+ indicates a value of 10 to less than 50) | 0.1 to 1 | 1 to 10
2 | CNC(=O)c1ccc(N2CCC(N3CCC(C)(c4nc5ccccc5c(=O)[nH]4)C3)CC2)cn1 (single isomer, unassigned) [Compound 67b] | 0.1 to 1 | + (+ indicates a value of 10 to less than 50) | 0.1 to 1 | 1 to 10
3 | CNC(=O)c1ccc(N2CCC(N3CCC(c4nc5ccc(Cl)cc5c(=O)[nH]4)C3)CC2)cn1 (single isomer, unassigned) [Compound 68b] | 0.01 to 0.1 | + (+ indicates a value of 10 to less than 50) | < 0.01 | 0.1 to 1
4 | N#Cc1ccc(N2CCC(N3CCC(c4nc5ccccc5c(=O)[nH]4)C3)CC2)cn1 (single isomer, unassigned) [Compound 69a] | < 0.01 | ++ (++ indicates a value of 50 to less than 100) | 0.01 to 0.1 | 0.1 to 1
5 | N#Cc1ccc(N2CCC(N3CCC(c4nc5ccccc5c(=O)[nH]4)C3)CC2)cn1 (single isomer, unassigned) [Compound 69b] | 0.01 to 0.1 | − (− indicates a value of less than 10) | 0.01 to 0.1 | 0.1 to 1
6 | N#Cc1ccc(N2CCC(N3CCCC(c4nc5ccccc5c(=O)[nH]4)C3)CC2)cn1 (single isomer, unassigned) [Compound 70a] | 0.01 to 0.1 | + (+ indicates a value of 10 to less than 50) | 0.1 to 1 | 1 to 10
7 | N#Cc1ccc(N2CCC(N3CCCC(c4nc5ccccc5c(=O)[nH]4)C3)CC2)cn1 (single isomer, unassigned) [Compound 70b] | 0.01 to 0.1 | − (− indicates a value of less than 10) | 0.1 to 1 | 0.1 to 1
8 | CNC(=O)c1ccc(N2CCC(N3CCCC(F)(c4nc5ccccc5c(=O)[nH]4)C3)CC2)cn1 (single isomer, unassigned) [Compound 71a] | 1 to 10 | − (− indicates a value of less than 10) | 1 to 10 | > 10
9 | CNC(=O)c1ccc(N2CCC(N3CCCC(F)(c4nc5ccccc5c(=O)[nH]4)C3)CC2)cn1 (single isomer, unassigned) [Compound 71b] | 0.01 to 0.1 | +++ (+++ indicate a value of at least 100) | 0.01 to 0.1 | > 10
10 | CCc1ccc(C2CCN(C3CCN(c4ccc(C(=O)NC)nc4)CC3)C2)[nH]c1=O (single isomer, unassigned) [Compound 72a] | 0.01 to 0.1 | +++ (+++ indicate a value of at least 100) | 0.01 to 0.1 | 1 to 10
11 | CNC(=O)c1ccc(N2CCC(N3CCCC(c4ncc(C(F)(F)F)c(=O)[nH]4)C3)CC2)cn1 (single isomer, unassigned) [Compound 73a] | 0.1 to 1 | − (− indicates a value of less than 10) | 0.1 to 1 | > 10
12 | CNC(=O)c1ccc(N2CCC(N3CCCC(c4ncc(C(F)(F)F)c(=O)[nH]4)C3)CC2)cn1 (single isomer, unassigned) [Compound 73b] | 0.01 to 0.1 | ++ (++ indicates a value of 50 to less than 100) | 0.01 to 0.1 | > 10
13 | N#Cc1ccc(N2CCC(N3CCCC(c4nc5ccccc5c(=O)[nH]4)C3)CC2)nc1 (single isomer, unassigned) [Compound 74a] | 0.1 to 1 | + (+ indicates a value of 10 to less than 50) | 0.1 to 1 | 1 to 10
14 | N#Cc1ccc(N2CCC(N3CCCC(c4nc5ccccc5c(=O)[nH]4)C3)CC2)nc1 (single isomer, unassigned) [Compound 74b] | 0.01 to 0.1 | ++ (++ indicates a value of 50 to less than 100) | 0.01 to 0.1 | 1 to 10
15 | CNC(=O)c1ccc(N2CCC(N3CCC(c4nc5cccc(Cl)c5c(=O)[nH]4)C3)CC2)cn1 (single isomer, unassigned) [Compound 85b] | < 0.01 | ++ (++ indicates a value of 50 to less than 100) | < 0.01 | 0.01 to 0.1
16 | CNC(=O)c1ccc(N2CCC(N3CCC(c4nc5cccc(C(F)(F)F)c5c(=O)[nH]4)C3)CC2)cn1 (single isomer, unassigned) [Compound 86a] | 0.01 to 0.1 | + (+ indicates a value of 10 to less than 50) | 0.01 to 0.1 | 0.1 to 1
17 | CNC(=O)c1ccc(N2CCC(N3CCC(c4cc5ccccc5c(=O)[nH]4)C3)CC2)cn1 (single isomer, unassigned) [Compound 91a] | < 0.01 | +++ (+++ indicate a value of at least 100) | < 0.01 | 0.1 to 1
18 | CNC(=O)c1ccc(N2CCC(N3CCC(c4cc5ccccc5c(=O)[nH]4)C3)CC2)cn1 (single isomer, unassigned) [Compound 91b] | < 0.01 | +++ (+++ indicate a value of at least 100) | < 0.01 | 0.1 to 1
19 | CNC(=O)c1ccc(N2CCC(N3CCC(c4nc5cc(F)ccc5c(=O)[nH]4)C3)CC2)cn1 (single isomer, unassigned) [Compound 92a] | 0.1 to 1 | + (+ indicates a value of 10 to less than 50) | 0.1 to 1 | > 10
20 | CNC(=O)c1ccc(N2CCC(N3CCC(c4nc5cc(F)ccc5c(=O)[nH]4)C3)CC2)cn1 (single isomer, unassigned) [Compound 92b] | 0.01 to 0.1 | +++ (+++ indicate a value of at least 100) | < 0.01 | 1 to 10
21 | CNC(=O)c1ccc(N2CCC(N3CCCC(c4nc5ccncc5c(=O)[nH]4)C3)CC2)cn1 (single isomer, unassigned) [Compound 93a] | 0.1 to 1 | + (+ indicates a value of 10 to less than 50) | 0.1 to 1 | > 10
22 | CNC(=O)c1ccc(N2CCC(N3CCCC(c4nc5ccncc5c(=O)[nH]4)C3)CC2)cn1 (single isomer, unassigned) [Compound 93b] | 1 to 10 | − (− indicates a value of less than 10) | 1 to 10 | > 10
23 | CNC(=O)c1ccc(N2CCC(N3CCCC(c4nc5ccccc5c(=O)[nH]4)C3)CC2)c(Cl)n1 (single isomer, unassigned) [Compound 94a] | 0.01 to 0.1 | + (+ indicates a value of 10 to less than 50) | 0.01 to 0.1 | 1 to 10
24 | CNC(=O)c1ccc(N2CCC(N3CCCC(c4nc5ccccc5c(=O)[nH]4)C3)CC2)c(Cl)n1 (single isomer, unassigned) [Compound 94b] | < 0.01 | +++ (+++ indicate a value of at least 100) | < 0.01 | > 10
25 | CNC(=O)c1cnc(N2CCC(N3CCC(c4nc5ccccc5c(=O)[nH]4)C3)CC2)cn1 (single isomer, unassigned) [Compound 96a] | 0.01 to 0.1 | + (+ indicates a value of 10 to less than 50) | 0.01 to 0.1 | 1 to 10
